Assay results published in patent US12528838B2, “Cyclic dominant negative competence stimulating peptide analogs and methods of treating Streptococcus pneumoniae infections” (priority 2019, dated 2026).
Where two headings read alike, the source gives them in different places. Bridge positions count the residues as written; N and C are the ends. Square brackets hold non-standard residues; d marks the D form. Peptide text beside a SMILES is read from it. Dab = NCC[C@H](N)C(=O)O; Dap = NC[C@H](N)C(=O)O

Legend:
ComD2 receptor = ComD2 receptor (Streptococcus pneumoniae serotype 4, UniProt A0A0H2US84); test: cell-based; type: cell-based
Text: Biological evaluation of cyclic dnCSPs. […] All assays will be performed in triplicates and independently three times. Serial dilutions of dnCSPs will be conducted to determine the EC50 and IC50 values of promising dnCSPs through initial screening. Data from reporter assays will be analyzed using the GraphPad Prism software. The lead dnCSPs will be assessed for their therapeutic potential using multiple in vitro assays, including attenuation of ComX-induction (reporter systems), genetic transformation, allolysis (zymogram assays), and release of PLY (hemolysis & Western blots). Lastly, the pneumococcal competence system regulates biofilm formation, which is important for the pathogenesis of […]. The ability of the dnCSPs to inhibit biofilm formation will be evaluated after 24 hr of growth on 1% BSA coated coverslips placed in flat-bottom polystyrene tissue culture plates by staining with FilmTracer LIVE/DEAD Biofilm viability kit (Invitrogen, L10316), and visualized using a confocal microscope and Z-stacked to construct 3D-images.

ComD1 receptor = ComD1 receptor (Streptococcus pneumoniae serotype 2, UniProt A0A0H2ZM50); test: cell-based; type: cell-based; details: for maximal induction of comX compared to CSP1 / potency higher than CSP1-cyc(Orn6D10): ComD1
Text: Biological evaluation of cyclic dnCSPs. The cyclic dnCSPs will be assessed for inhibition of competence induction using the β-gal, lux (FIG. 11) or luc (FIG. 15) reporter systems we have optimized for the analysis of a large number of signal variants in 96-well plates. All assays will be performed in triplicates and independently three times. Serial dilutions of dnCSPs will be conducted to determine the EC50 and IC50 values of promising dnCSPs through initial screening. Data from reporter assays will be analyzed using the GraphPad Prism software. The lead dnCSPs will be assessed for their therapeutic potential using multiple in vitro assays, including attenuation of ComX-induction (reporter systems), genetic transformation, allolysis (zymogram assays), and release of PLY (hemolysis & Western blots). Lastly, the pneumococcal competence system regulates biofilm formation, which is important for the pathogenesis of […]. The ability of the dnCSPs to inhibit biofilm formation will be evaluated after 24 hr of growth on 1% BSA coated coverslips placed in flat-bottom polystyrene tissue culture plates by staining with FilmTracer LIVE/DEAD Biofilm viability kit (Invitrogen, L10316), and visualized using a confocal microscope and Z-stacked to construct 3D-images.

ComD1 receptor, sequence (A0A0H2ZM50 entry or part of it): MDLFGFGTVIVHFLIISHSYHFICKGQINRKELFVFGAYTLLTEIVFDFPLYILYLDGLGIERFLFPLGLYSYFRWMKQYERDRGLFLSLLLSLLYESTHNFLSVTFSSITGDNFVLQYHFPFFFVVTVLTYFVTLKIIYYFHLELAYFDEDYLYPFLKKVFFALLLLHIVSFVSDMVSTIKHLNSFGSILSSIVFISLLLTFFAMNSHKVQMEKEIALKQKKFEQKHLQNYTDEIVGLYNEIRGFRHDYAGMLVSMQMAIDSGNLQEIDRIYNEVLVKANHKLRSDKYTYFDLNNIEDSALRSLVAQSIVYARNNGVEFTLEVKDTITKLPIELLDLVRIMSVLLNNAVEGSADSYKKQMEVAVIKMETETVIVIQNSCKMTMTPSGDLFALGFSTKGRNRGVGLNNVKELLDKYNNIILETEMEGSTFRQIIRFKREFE
ComD2 receptor, sequence (A0A0H2US84 entry or part of it): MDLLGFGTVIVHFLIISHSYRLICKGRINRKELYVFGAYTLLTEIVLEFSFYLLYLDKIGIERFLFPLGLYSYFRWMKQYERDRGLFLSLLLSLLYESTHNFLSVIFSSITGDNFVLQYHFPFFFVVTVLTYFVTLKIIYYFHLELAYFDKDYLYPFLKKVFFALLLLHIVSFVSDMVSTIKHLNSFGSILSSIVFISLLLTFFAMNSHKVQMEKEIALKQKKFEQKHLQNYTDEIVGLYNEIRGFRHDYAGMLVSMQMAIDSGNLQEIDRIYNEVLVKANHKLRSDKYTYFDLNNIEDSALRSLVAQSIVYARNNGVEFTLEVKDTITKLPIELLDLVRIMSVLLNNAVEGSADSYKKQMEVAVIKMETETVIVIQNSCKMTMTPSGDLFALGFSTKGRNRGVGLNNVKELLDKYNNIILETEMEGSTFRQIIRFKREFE

| Compound | EC50 (ComD2 receptor) [nM] | EC50 (ComD1 receptor) [nM] | maximal induction of comX compared to CSP1 (ComD1 receptor) [%] | further results |
| --- | --- | --- | --- | --- |
| CC[C@H](C)[C@H](NC(=O)[C@H](Cc1ccccc1)NC(=O)[C@@H]1CCC(=O)NCC[C@H](NC(=O)[C@H](CO)NC(=O)[C@H](CC(C)C)NC(=O)[C@H](CCCNC(=N)N)NC(=O)[C@H](CCSC)NC(=O)[C@H](C)N)C(=O)N[C@@H](Cc2ccccc2)C(=O)N[C@@H](Cc2ccccc2)C(=O)N[C@@H](CCCNC(=N)N)C(=O)N1)C(=O)N[C@@H](CC(C)C)C(=O)N[C@@H](CCC(N)=O)C(=O)N[C@@H](CCCNC(=N)N)C(=O)N[C@@H](CCCCN)C(=O)N[C@@H](CCCCN)C(=O)O [CSP1-E1A-cyc(Dab6E10), A-M-R-L-S-(Dab-F-F-R-E)-F-I-L-Q-R-K-K] (H-AMRLS[Dab]FFREFILQRKK-OH; lactam 6-10; N-terminus and C-terminus assumed) |  |  |  | IC50 (ComD2 receptor): > 1000 nM; IC50 (ComD2 receptor; read-out: ComD2 IC50 (95% CI), Table 2, β-gal reporter, IC50 values in italic font): > 1000 nM; IC50 (ComD1 receptor): 173 nM |
| CC[C@H](C)[C@H](NC(=O)[C@H](Cc1ccccc1)NC(=O)[C@@H]1CCC(=O)NC[C@H](NC(=O)[C@H](CO)NC(=O)[C@H](CC(C)C)NC(=O)[C@H](CCCNC(=N)N)NC(=O)[C@H](CCSC)NC(=O)[C@H](C)N)C(=O)N[C@@H](Cc2ccccc2)C(=O)N[C@@H](Cc2ccccc2)C(=O)N[C@@H](CCCNC(=N)N)C(=O)N1)C(=O)N[C@@H](CC(C)C)C(=O)N[C@@H](CCC(N)=O)C(=O)N[C@@H](CCCNC(=N)N)C(=O)O [CSP1-E1A-des-K16K17-cyc(Dap6E10), A-M-R-L-S-(Dap-F-F-R-E)-F-I-L-Q-R] (H-AMRLS[Dap]FFREFILQR-OH; lactam 6-10; N-terminus and C-terminus assumed) |  |  |  | IC50 (ComD2 receptor): 67.2 nM; higher inhibition potency against the ComD2 receptor compared to parent CSP1-E1A-cyc(Dap6E10) (ComD2 receptor): 3 fold; IC50 (ComD1 receptor): 7.57 nM; higher inhibition potency against the ComD1 receptor compared to parent CSP1-E1A-cyc(Dap6E10) (ComD1 receptor): ~10 fold |
| CC[C@H](C)[C@H](NC(=O)[C@H](Cc1ccccc1)NC(=O)[C@@H]1CCC(=O)NCC[C@H](NC(=O)[C@H](CO)NC(=O)[C@H](CC(C)C)NC(=O)[C@H](CCCNC(=N)N)NC(=O)[C@H](CCSC)NC(=O)[C@@H](N)CCC(=O)O)C(=O)N[C@@H](Cc2ccccc2)C(=O)N[C@@H](Cc2ccccc2)C(=O)N[C@@H](CCCNC(=N)N)C(=O)N1)C(=O)N[C@@H](CC(C)C)C(=O)N[C@@H](CCC(N)=O)C(=O)N[C@@H](CCCNC(=N)N)C(=O)N[C@@H](CCCCN)C(=O)N[C@@H](CCCCN)C(=O)O [CSP1-cyc(Dab6E10)] (H-EMRLS[Dab]FFREFILQRKK-OH; lactam 6-10; N-terminus and C-terminus assumed) | 31.4 | 12.2 | 100 | potency higher than CSP1-cyc(Orn6D10) (ComD1 receptor): 10 fold |
| CC[C@H](C)[C@H](NC(=O)[C@H](Cc1ccccc1)NC(=O)[C@@H]1CCC(=O)NC[C@H](NC(=O)[C@H](CO)NC(=O)[C@H](CC(C)C)NC(=O)[C@H](CCCNC(=N)N)NC(=O)[C@H](CCSC)NC(=O)[C@@H](N)CCC(=O)O)C(=O)N[C@@H](Cc2ccccc2)C(=O)N[C@@H](Cc2ccccc2)C(=O)N[C@@H](CCCNC(=N)N)C(=O)N1)C(=O)N[C@@H](CC(C)C)C(=O)N[C@@H](CCC(N)=O)C(=O)N[C@@H](CCCNC(=N)N)C(=O)N[C@@H](CCCCN)C(=O)N[C@@H](CCCCN)C(=O)O [CSP1-cyc(Dap6E10)] (H-EMRLS[Dap]FFREFILQRKK-OH; lactam 6-10; N-terminus and C-terminus assumed) | 13.1 | 14.6 | 100 | potency against ComD2 receptor higher than CSP2 (ComD2 receptor): about 4 fold; potency higher than CSP1-cyc(Orn6D10) (ComD1 receptor): 10 fold |
| CC[C@H](C)[C@H](NC(=O)[C@H](Cc1ccccc1)NC(=O)[C@H](CC(=O)O)NC(=O)[C@@H]1CC(=O)NCCCC[C@H](NC(=O)[C@H](CO)NC(=O)[C@H](CC(C)C)NC(=O)[C@H](CCCNC(=N)N)NC(=O)[C@H](CCSC)NC(=O)[C@@H](N)CCC(=O)O)C(=O)N[C@@H](Cc2ccccc2)C(=O)N[C@@H](Cc2ccccc2)C(=O)N1)C(=O)N[C@@H](CC(C)C)C(=O)N[C@@H](CCC(N)=O)C(=O)N[C@@H](CCCNC(=N)N)C(=O)N[C@@H](CCCCN)C(=O)N[C@@H](CCCCN)C(=O)O [CSP1-cyc(K6D9)] (H-EMRLSKFFDDFILQRKK-OH; lactam 6-9; N-terminus and C-terminus assumed) | 528 | > 1000 |  |  |
| CC[C@H](C)[C@H](NC(=O)[C@H](Cc1ccccc1)NC(=O)[C@@H]1CC(=O)NCCCC[C@H](NC(=O)[C@H](CO)NC(=O)[C@H](CC(C)C)NC(=O)[C@H](CCCNC(=N)N)NC(=O)[C@H](CCSC)NC(=O)[C@@H](N)CCC(=O)O)C(=O)N[C@@H](Cc2ccccc2)C(=O)N[C@@H](Cc2ccccc2)C(=O)N[C@@H](CCCNC(=N)N)C(=O)N1)C(=O)N[C@@H](CC(C)C)C(=O)N[C@@H](CCC(N)=O)C(=O)N[C@@H](CCCNC(=N)N)C(=O)N[C@@H](CCCCN)C(=O)N[C@@H](CCCCN)C(=O)O [CSP1-cyc(K6D10)] | > 1000 | 258 | 44 |  |
| CC[C@H](C)[C@@H]1NC(=O)[C@H](Cc2ccccc2)NC(=O)[C@H](CC(=O)O)NC(=O)[C@H](CCCNC(=N)N)NC(=O)[C@H](Cc2ccccc2)NC(=O)[C@H](Cc2ccccc2)NC(=O)[C@@H](NC(=O)[C@H](CO)NC(=O)[C@H](CC(C)C)NC(=O)[C@H](CCCNC(=N)N)NC(=O)[C@H](CCSC)NC(=O)[C@@H](N)CCC(=O)O)CCCCNC(=O)C[C@@H](C(=O)N[C@@H](CCCNC(=N)N)C(=O)N[C@@H](CCCCN)C(=O)N[C@@H](CCCCN)C(=O)O)NC(=O)[C@H](CC(C)C)NC1=O [CSP1-cyc(K6D14)] (H-EMRLSKFFRDFILDRKK-OH; lactam 6-14; N-terminus and C-terminus assumed) | > 1000 | > 1000 |  |  |
| CC[C@H](C)[C@H](NC(=O)[C@H](Cc1ccccc1)NC(=O)[C@@H]1CCC(=O)NCCCC[C@H](NC(=O)[C@H](CO)NC(=O)[C@H](CC(C)C)NC(=O)[C@H](CCCNC(=N)N)NC(=O)[C@H](CCSC)NC(=O)[C@@H](N)CCC(=O)O)C(=O)N[C@@H](Cc2ccccc2)C(=O)N[C@@H](Cc2ccccc2)C(=O)N[C@@H](CCCNC(=N)N)C(=O)N1)C(=O)N[C@@H](CC(C)C)C(=O)N[C@@H](CCC(N)=O)C(=O)N[C@@H](CCCNC(=N)N)C(=O)N[C@@H](CCCCN)C(=O)N[C@@H](CCCCN)C(=O)O [CSP1-cyc(K6E10)] | > 1000 | 350 |  |  |
| CC[C@H](C)[C@@H]1NC(=O)[C@H](Cc2ccccc2)NC(=O)[C@@H](NC(=O)[C@H](CCCNC(=N)N)NC(=O)[C@H](Cc2ccccc2)NC(=O)[C@H](Cc2ccccc2)NC(=O)[C@H](CCCCN)NC(=O)[C@H](CO)NC(=O)[C@H](CC(C)C)NC(=O)[C@H](CCCNC(=N)N)NC(=O)[C@H](CCSC)NC(=O)[C@@H](N)CCC(=O)O)CCCCNC(=O)C[C@@H](C(=O)N[C@@H](CCCNC(=N)N)C(=O)N[C@@H](CCCCN)C(=O)N[C@@H](CCCCN)C(=O)O)NC(=O)[C@H](CC(C)C)NC1=O [CSP1-cyc(K10D14)] (H-EMRLSKFFRKFILDRKK-OH; lactam 10-14; N-terminus and C-terminus assumed) |  | 257 |  |  |
| CC[C@H](C)[C@H](NC(=O)[C@H](Cc1ccccc1)NC(=O)[C@@H]1CC(=O)NCCC[C@H](NC(=O)[C@H](CO)NC(=O)[C@H](CC(C)C)NC(=O)[C@H](CCCNC(=N)N)NC(=O)[C@H](CCSC)NC(=O)[C@@H](N)CCC(=O)O)C(=O)N[C@@H](Cc2ccccc2)C(=O)N[C@@H](Cc2ccccc2)C(=O)N[C@@H](CCCNC(=N)N)C(=O)N1)C(=O)N[C@@H](CC(C)C)C(=O)N[C@@H](CCC(N)=O)C(=O)N[C@@H](CCCNC(=N)N)C(=O)N[C@@H](CCCCN)C(=O)N[C@@H](CCCCN)C(=O)O [CSP1-cyc(Orn6D10)] | > 1000 | 193 | 100 |  |
| CSP1-E1AK6A (AMRLSAFFRDFILQRKK) |  |  |  | inhibition of ComD receptors (ComD1 receptor): could only strongly inhibit the ComD1 receptor |
